Reference: US20070276011A1, “Plasminogen Activator Inhibitor-1 Inhibitor” (priority 2003, published 2007)

How the values were obtained:
[1] = target: T1, recombinant human PAI-1 (Homo sapiens, UniProt P05121); test: PAI-1 inhibitory activity, Test Method A (tPA fluorogenic substrate, Tris buffer pH8.0, 37 C); format: biochemical; details: for IC50: 50% inhibitory concentration of PAI-1 activity, according to the aforementioned method; for Inhibitory Ratio at 25 μM (%): Test Method A
[2] = target: T1, recombinant human PAI-1; test: Inhibition of complex formation of PAI-1 and tPA (SDS-PAGE); format: biochemical; details: 100 μM concentration
Description: To a 2.5 μL solution obtained by diluting a DMSO solution of the test compound at 4-fold concentration of the test concentration with PBS(-), 5 μL of 150 nM recombinant human PAI-1 solution adjusted with a phosphate buffer (pH6.6, 0.05M Sodium Phosphate, 0.1 M NaCl, 1 mM EDTA) was added, and reacted for 5 minutes at 37° C. […] of 600 nM recombinant human one-chain tPA solution adjusted with PBS(-) was added, and further reacted for 5 minutes at 37° C. 10 μL of stop buffer (1.25 mM Tris-HCl pH6.8, 4% SDS, 0.01% BPB, 14% Glycerol) was added, heated for 30 seconds at 100° C., and then the total amount of 20 μL was applied to 10% SDS-PAGE gel electrophoresis. When the test compound was not added as being a control, a band of PAI-1-tPA complex was observed.

[3] = target: T1, recombinant human PAI-1; test: PAI-1 inhibitory activity, Test Method B (tPA fluorogenic substrate, Tris buffer pH7.5, room temperature); format: biochemical; details: 25 μM test compound; Test Method B (cells marked "method B")
Description: To a 90 μL solution obtained by diluting a DMSO solution of the test compound at 2.2-fold concentration of the test concentration (=final concentration when fluorogenic substrate was added) with a Tris buffer (pH7.5), 10 μL of 120 nM recombinant human PAI-1 solution adjusted with pH6.6 phosphate buffer was added, and incubated for 15 minutes at room temperature. 50 μL of 800IU/ml two-chain tPA (activity standard) solution adjusted with Tris buffer (pH7.5) was added, and incubated for 30 minutes at room temperature. […] Fluorescence was measured at the excitation wavelength=360 nm, emission wavelength=460 or 465 nm using a microplete reader (SPECTRAFLUOR or GENios) by TECAN. The fluorescence intensities in the presence of the PAI-1 as the control (DMSO) or in the absence of the PAI-1 (tPA alone) were taken as 100% and 0% of PAI-1 activities, respectively, and inhibitory ratios of PAI-1 activities in the presence of the test compound were obtained. […]
In either method of Test Method A or B, fluorescence of tPA activation by the test compound in the absence of PAI-1 or that of the test compound was not observed.
In the following table, “method B” described in the column of the inhibitory ratio means that the results were measured by the above Test Method B. The other results indicated were measured by the above Test Method A.

[4] = test system: rat thrombosis model; test: Tests in rat thrombosis model (carotid shunt, thrombus weight); format: in vivo; details: intraperitoneally 30 mg/kg/day for 8 days beforehand, control 94.9±3.3 mg, n=4, p<0.01
Description: Catheters for shunt were inserted into the right carotid artery and the left carotid artery of a rat, blood was circulated for 30 minutes, and weights of thromboses adhered to threads placed inside the catheters were measured.

[5] = test system: mouse heart transplantation model; test: Tests in mouse (murine) heart transplantation model; format: in vivo; details: p<0.05

T1 sequence (P05121 24-402): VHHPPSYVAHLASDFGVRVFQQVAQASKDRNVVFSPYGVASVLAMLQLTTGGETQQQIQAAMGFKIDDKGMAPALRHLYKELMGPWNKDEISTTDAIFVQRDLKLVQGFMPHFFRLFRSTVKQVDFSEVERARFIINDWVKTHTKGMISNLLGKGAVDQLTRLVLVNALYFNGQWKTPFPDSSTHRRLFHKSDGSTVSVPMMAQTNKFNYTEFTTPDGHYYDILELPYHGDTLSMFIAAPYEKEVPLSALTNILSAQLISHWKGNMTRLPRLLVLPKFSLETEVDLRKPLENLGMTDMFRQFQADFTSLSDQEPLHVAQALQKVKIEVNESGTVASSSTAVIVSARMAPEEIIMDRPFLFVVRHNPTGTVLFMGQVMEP

SMILES | IC50 [1] [nM] | inhibition of the complex formation of PAI-1 and tPA observed with SDS-PAGE [2] | Inhibitory Ratio at 25 μM (%) ([1]; 25 μM test compound) | further results
O=C1SC(=Cc2ccc(O)c(O)c2)C(=O)N1Cc1ccc(Cl)cc1Cl [compound 23, 5-(3,4-dihydroxybenzylidene)-3-(2,4-dichlorobenzyl)thiazolidine-2,4-dione] | 250 | completely inhibited | – | Inhibitory Ratio at 25 μM (%) ([1]; test compound 25 μM): >99%; melting point: 202 °C (dec.)
O=C(O)c1cccc(C=C2SC(=O)N(Cc3ccc(Cl)c(Cl)c3)C2=O)c1 [compound 350, 5-(3-Carboxybenzylidene)-3-(3,4-dichlorobenzyl)thiazolidine-2,4-dione] | – | – | – | Inhibitory Ratio at 25 μM (%) [3]: 75 (method B) %
COC(=O)c1ccc(CN2C(=O)SC(=Cc3ccc(O)c(C(=O)O)c3)C2=O)cc1 [compound 409, 5-(3-Carboxy-4-hydroxybenzylidene)-3-(4-methoxycarbonylbenzyl)-thiazolidine-2,4-dione] | – | – | – | Inhibitory Ratio at 25 μM (%) [3]: 23 (method B) %
O=C(Nc1ccc(O)c(O)c1)c1cc(C=C2SC(=O)N(Cc3ccc(Cl)c(Cl)c3)C2=O)ccc1O [compound 352] | – | completely inhibited | 66 | –
CC(C)C1=NN(c2ccc(F)c(Cl)c2)C(=O)C1=Cc1cc(O)c(O)cc1O [compound 515, 4-(2,4,5-Trihydroxybenzylidne)-1-(3-chloro-4-fluorophenyl)-3-isopropyl-2-pyrazolin-5-one] | 500 | completely inhibited | >99 | –
O=C(Cc1cccc(Oc2ccccc2)c1)Nc1ccc(CN2C(=O)SC(=Cc3cccc(O)c3O)C2=O)cc1 [compound 312, 5-(2,3-Dihydroxybenzylidene)-3-{4-[(3-phenoxyphenyl)acetylamino]-benzyl}thiazolidine-2,4-dione] | 290 | completely inhibited | >99 | –
O=C1C(=Cc2cc(O)c(O)cc2O)C(c2ccccc2)=NN1c1cc(Cl)cc(Cl)c1 [compound 136] | 390 | completely inhibited | – | Inhibitory Ratio at 25 μM (%) ([1]; test compound 25 μM): >99%
O=C1SC(=Cc2cc(O)c(O)c(O)c2)C(=O)N1Cc1ccc(Cl)c(Cl)c1 [compound 10, 5-(3,4,5-Trihydroxybenzylidene)-3-(3,4-dichlorobenzyl)thiazolidine-2,4-dione] | 450 | completely inhibited | – | Inhibitory Ratio at 25 μM (%) ([1]; test compound 25 μM): >99%; weight of thrombus [4]: 67.2 ± 6.3 mg; ratio of fibrous lesion 60 days after the transplantation ([5]; class II mismatch allograft, control 44.5±2.7%, n=5): 18.8±2.2%; Vascular endothelial hyperplasia (ratio of thickened endothelium to the internal elastic lamina); incidence of vascular intimal thickening ([5]; class II mismatch allograft, control 64.5±5.8%): 21.7±4.9%; graft survival ([5]; major mismatch allograft Balb/c to C57BL/6, intraperitoneally 20 mg/kg/day, control 7.2±0.2 days): 9.0 ± 0.7 days
O=C(Nc1cc(C(F)(F)F)ccc1Cl)c1cc(C=C2SC(=O)N(Cc3ccc(Cl)c(Cl)c3)C2=O)ccc1O [compound 423] | – | completely inhibited | 75 | –
O=C(Nc1cc([N+](=O)[O-])ccc1Cl)c1cc(C=C2SC(=O)N(Cc3ccc(Cl)c(Cl)c3)C2=O)ccc1O [compound 473] | 390 | completely inhibited | 70 | –
O=C(Nc1cccc(OC(F)(F)F)c1)c1cc(C=C2SC(=O)N(Cc3ccc(Cl)c(Cl)c3)C2=O)cc(O)c1O [compound 475] | 520 | completely inhibited | 53 | –
N=C(N)NCCC[C@H](N)C(=O)O.N=C(N)NCCC[C@H](N)C(=O)O.N=C(N)NCCC[C@H](N)C(=O)O.O=C1SC(=Cc2cc(O)c(O)c(O)c2)C(=O)N1Cc1ccc(Cl)c(Cl)c1 [compound 334, tri(L-(+)-arginine) salt of 5-(3,4,5-trihydroxybenzylidene)-3-(3,4-dichlorobenzyl)thiazolidine-2,4-dione] | 540 | completely inhibited | >99 | –
O=C(Nc1cc(O)c(O)c(O)c1)c1cc(C=C2SC(=O)N(Cc3ccc(Cl)c(Cl)c3)C2=O)ccc1O [compound 435] | – | completely inhibited | 71 | –
CC1=NN(c2ccc(Cl)c(Cl)c2)C(=O)C1=Cc1cc(O)c(O)cc1O [compound 503] | – | completely inhibited | >99 | –
O=C1SC(=Cc2cccc(O)c2O)C(=O)N1Cc1ccc(Cl)cc1Cl [compound 22, 5-(2,3-Dihydroxybenzylidene)-3-(2,4-dichlorobenzyl)thiazolidine-2,4-dione] | 440 | completely inhibited | – | Inhibitory Ratio at 25 μM (%) ([1]; test compound 25 μM): >99%
O=C(Nc1ccc(O)c(O)c1)c1cc(C=C2SC(=O)N(Cc3ccc(C(F)(F)F)cc3)C2=O)ccc1O [compound 402] | – | completely inhibited | 92 | –
O=C1SC(=Cc2cccc(O)c2O)C(=O)N1Cc1ccc(C=Cc2ccccc2)cc1 [compound 56, 5-(2,3-Dihydroxybenzylidene)-3-(4-styrylbenzyl)thiazolidine-2,4-dione] | 140 | completely inhibited | – | Inhibitory Ratio at 25 μM (%) ([1]; test compound 25 μM): >99%
CCOC1=NN(c2ccc([N+](=O)[O-])cc2)C(=O)C1=Cc1cc(/C=C/c2ccccc2)ccc1O [compound 517] | 480 | completely inhibited | >99 | –
